The results in this text go back to patent US8716475B2, “2-aminopyrimidine modulators of the histamine H4 receptor” (Janssen Pharmaceutica NV, priority 2007, dated 2014).

One assay deals with T1, human H4 receptor (Homo sapiens, UniProt Q9H3N8).
T1 construct: expressed in transfected cells
T1 sequence (Q9H3N8 whole entry): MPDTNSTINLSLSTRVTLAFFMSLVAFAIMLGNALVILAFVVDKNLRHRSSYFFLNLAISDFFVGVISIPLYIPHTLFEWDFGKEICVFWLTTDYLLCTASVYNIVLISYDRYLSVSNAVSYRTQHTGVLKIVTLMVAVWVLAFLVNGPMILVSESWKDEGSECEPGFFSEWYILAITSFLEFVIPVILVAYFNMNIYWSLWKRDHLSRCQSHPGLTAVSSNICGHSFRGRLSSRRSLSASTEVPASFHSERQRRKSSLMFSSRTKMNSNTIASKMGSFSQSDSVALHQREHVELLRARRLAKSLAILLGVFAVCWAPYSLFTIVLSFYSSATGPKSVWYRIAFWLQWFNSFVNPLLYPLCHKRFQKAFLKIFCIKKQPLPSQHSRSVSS
The assay is described as follows: Binding Assay on Recombinant Human Histamine H4 Receptor. Particulars: Table 1; [3H] histamine competition binding, membranes of SK-N-MC cells transfected with human H4 receptor; average of results. On the procedure:
Binding Assay on Recombinant Human Histamine H4 Receptor.
Cell pellets from SK-N-MC cells stably or transiently transfected with human H4 receptor were used for the binding assays. Cell pellets were homogenized in 50 mM Tris/5 mM EDTA buffer and supernatants from an 800g spin were collected and recentrifuged at 30,000g for 30 min. Pellets were rehomogenized in 50 mM Tris/5 mM EDTA buffer. […] Compounds were tested in free base, hydrochloride salt, or trifluoroacetic acid form. Nonspecific binding was defined with 100 μM cold histamine. […] Membranes were harvested by rapid filtration using the 96 well Brandel system or a cell harvester using a Whatman GF/C filter or filter plates treated with 0.5% polyethylenimine (PEI), and washed 4 times with ice-cold 50 mM Tris/5 mM EDTA buffer. Filters were then dried, mixed with scintillant and radioactive counts were determined. […] Data marked with an asterisk (*) were obtained by the cell harvester method. Where activity is shown as greater than (>) a particular value, the value is the highest concentration tested.
Consider “4-(4-piperazin-1-yl)-5,6,7,8-tetrahydro-quinazolin-2-ylamine [Example 67]”, for which the Ki was 17 nM.
For the compound `Nc1nc(C2CCCC2)cc(N2CCNCC2)n1` [Example 1, 4-Cyclopentyl-6-piperazin-1-yl-pyrimidin-2-ylamine], the Ki was 1 nM.
For the compound `CN1CCN(c2cc(C3CCCC3)nc(N)n2)CC1` [Example 2, 4-Cyclopentyl-6-(4-methyl-piperazin-1-yl)-pyrimidin-2-ylamine], the Ki is 1 nM.
Take `Nc1nc(C2CCCC2)cc(N2CCC[C@@H](N)C2)n1` [Example 3, (R)-4-(3-Amino-piperidin-1-yl)-6-cyclopentyl-pyrimidin-2-ylamine]: the Ki worked out at 257 nM.
In the case of `CN[C@@H]1CCN(c2cc(C3CCCC3)nc(N)n2)C1` [Example 4, (R)-4-Cyclopentyl-6-(3-methylamino-pyrrolidin-1-yl)-pyrimidin-2-ylamine], the Ki is 1 nM.
For `CNC1CN(c2cc(C3CCCC3)nc(N)n2)CC1O` (stereo not drawn) [Example 5, trans-1-(2-Amino-6-cyclopentyl-pyrimidin-4-yl)-4-methylamino-pyrrolidin-3-ol], the Ki came to 30 nM.
Consider `Nc1nc(C2CCCC2)cc(N2CC3CCNC3C2)n1` (stereo not drawn) [Example 6, 4-Cyclopentyl-6-(cis-hexahydro-pyrrolo[3,4-b]pyrrol-5-yl)-pyrimidin-2-ylamine], for which the Ki was 6 nM.
Consider `Nc1nc(C2CCCC2)cc(N2CC3CCCNC3C2)n1` (stereo not drawn) [Example 7, 4-Cyclopentyl-6-(cis-octahydro-pyrrolo[3,4-b]pyridin-6-yl)-pyrimidin-2-ylamine], for which the Ki is 2 nM.
Still for that read-out and setting: the value for `CC(C)c1cc(N2CCNCC2)nc(N)n1` [Example 8, 4-Isopropyl-6-piperazin-1-yl-pyrimidin-2-ylamine] was 3 nM; that for `CC(C)c1cc(N2CCC[C@@H](N)C2)nc(N)n1` [Example 9, (R)-4-(3-Amino-piperidin-1-yl)-6-isopropyl-pyrimidin-2-ylamine] was 820 nM; that for `CC(C)c1cc(N2CCC[C@H](N)C2)nc(N)n1` [Example 10, (S)-4-(3-Amino-piperidin-1-yl)-6-isopropyl-pyrimidin-2-ylamine] was 159 nM.
As to `CN[C@@H]1CCN(c2cc(C(C)C)nc(N)n2)C1` [Example 11, (R)-4-Isopropyl-6-(3-methylamino-pyrrolidin-1-yl)-pyrimidin-2-ylamine], the Ki turned out to be 12 nM.
The same measure, in the same setting: the value for `CC(C)c1cc(N2CC[C@@H](N)C2)nc(N)n1` [Example 12, (R)-4-(3-Amino-pyrrolidin-1-yl)-6-isopropyl-pyrimidin-2-ylamine] was 18 nM; that for `CNC1CN(c2cc(C(C)C)nc(N)n2)CC1O` (stereo not drawn) [Example 13, trans-1-(2-Amino-6-isopropyl-pyrimidin-4-yl)-4-methylamino-pyrrolidin-3-ol] was 631 nM.
For `CC(C)c1cc(N2C[C@@H]3C[C@H]2CN3)nc(N)n1` [Example 14, (S,S)-4-(2,5-Diaza-bicyclo[2.2.1]hept-2-yl)-6-isopropyl-pyrimidin-2-ylamine], the Ki stood at 673 nM.
`CC(C)c1cc(N2C[C@H]3C[C@@H]2CN3)nc(N)n1` [Example 15, (R,R)-4-(2,5-Diaza-bicyclo[2.2.1]hept-2-yl)-6-isopropyl-pyrimidin-2-ylamine]: the Ki amounted to 692 nM.
As to `CC(C)c1cc(N2CC3CCNC3C2)nc(N)n1` (stereo not drawn) [Example 16, 4-(cis-Hexahydro-pyrrolo[3,4-b]pyrrol-5-yl)-6-isopropyl-pyrimidin-2-ylamine], the Ki stood at 65 nM.
As for `CC(C)c1cc(N2C[C@H]3CCN[C@H]3C2)nc(N)n1` [Example 17, (R,R)-4-(Hexahydro-pyrrolo[3,4-b]pyrrol-5-yl)-6-isopropyl-pyrimidin-2-ylamine], the Ki came out at 59 nM.
For `CC(C)c1cc(N2C[C@H]3CN(C)C[C@H]3C2)nc(N)n1` [Example 18, 4-Isopropyl-6-(cis-5-methyl-hexahydro-pyrrolo[3,4-c]pyrrol-2-yl)-pyrimidin-2-ylamine], the Ki turned out to be 17 nM.
With `CC(C)c1cc(N2CC3CCCNC3C2)nc(N)n1` (stereo not drawn) [Example 19, 4-Isopropyl-6-(cis-octahydro-pyrrolo[3,4-b]pyridin-6-yl)-pyrimidin-2-ylamine], the Ki was 8 nM.
As to `CC(C)c1cc(N2C[C@H]3CCCN[C@H]3C2)nc(N)n1` [Example 20, (R,R)-4-Isopropyl-6-(cis-octahydro-pyrrolo[3,4-b]pyridin-6-yl)-pyrimidin-2-ylamine], the Ki was determined as 18 nM.
As to `Cc1cc(N2CCNCC2)nc(N)n1` [Example 21, 4-Methyl-6-piperazin-1-yl-pyrimidin-2-ylamine], the Ki stood at 29 nM.
Take `Cc1cc(N2CCN(C)CC2)nc(N)n1` [Example 22, 4-Methyl-6-(4-methyl-piperazin-1-yl)-pyrimidin-2-ylamine]: the Ki is 18 nM.
For `CN[C@@H]1CCN(c2cc(C)nc(N)n2)C1` [Example 23, (R)-4-Methyl-6-(3-methylamino-pyrrolidin-1-yl)-pyrimidin-2-ylamine], the Ki worked out at 77 nM.
Same read-out and setting: the value for `Cc1cc(N2CC3CCCNC3C2)nc(N)n1` (stereo not drawn) [Example 24, 4-Methyl-6-(cis-octahydro-pyrrolo[3,4-b]pyridin-6-yl)-pyrimidin-2-ylamine] was 49 nM.
The same measure, in the same setting: the value for `Cc1nc(N)nc(N2CCNCC2)c1C` [Example 25, 4,5-Dimethyl-6-piperazin-1-yl-pyrimidin-2-ylamine] was 286 nM.
Same read-out and setting: the value for `Cc1nc(N)nc(N2CCN(C)CC2)c1C` [Example 26, 4,5-Dimethyl-6-(4-methyl-piperazin-1-yl)-pyrimidin-2-ylamine] was 177 nM.
`Cc1nc(N)nc(N2CC[C@@H](N)C2)c1C` [Example 27, (R)-4-(3-Amino-pyrrolidin-1-yl)-5,6-dimethyl-pyrimidin-2-ylamine]: the Ki was more than 10000 nM.
For the compound `CN[C@@H]1CCN(c2nc(N)nc(C)c2C)C1` [Example 28, (R)-4,5-Dimethyl-6-(3-methylamino-pyrrolidin-1-yl)-pyrimidin-2-ylamine], the Ki is 357 nM.

The same assay, now with this note: Table 2; [3H] histamine competition binding, membranes of SK-N-MC cells transfected with human H4 receptor; average of results.
Regarding `Nc1nc(C2CCCC2)cc(N2CCC3(CCCN3)C2)n1` (racemic) [Example 84, 4-Cyclopentyl-6-(cis-1,7-diaza-spiro[4.4]non-7-yl)-pyrimidin-2-ylamine], the Ki was 11 nM.
As for `Nc1nc(C2CCCC2)cc(N2CC3NCCOC3C2)n1` (single isomer, unassigned) [Example 86, 4-Cyclopentyl-6-(trans-hexahydro-pyrrolo[3,4-b][1,4]oxazin-6-yl)-pyrimidin-2-ylamine], the Ki came to 56 nM.
Turning to `Nc1nc(C2CCCC2)cc(N2CC3NCCOC3C2)n1` (single isomer, unassigned) [Example 88, 4-Cyclopentyl-6-(cis-hexahydro-pyrrolo[3,4-b][1,4]oxazin-6-yl)-pyrimidin-2-ylamine], the Ki was determined as 520 nM.
On the same count and under the same terms, the value for `CC(C)c1cc(N2CC3NCCOC3C2)nc(N)n1` (single isomer, unassigned) [Example 93, 4-(cis-Hexahydro-pyrrolo[3,4-b][1,4]oxazin-6-yl)-6-isopropyl-pyrimidin-2-ylamine] was 481 nM; that for `CC(C)c1cc(N2CC3NCCOC3C2)nc(N)n1` (single isomer, unassigned) [Example 94, 4-(trans-Hexahydro-pyrrolo[3,4-b][1,4]oxazin-6-yl)-6-isopropyl-pyrimidin-2-ylamine] was 497 nM.
`CN[C@@H]1CCN(c2cc(C3CC3c3ccccc3)nc(N)n2)C1` (single isomer, unassigned) [Example 255]: the Ki stood at 34 nM.
As to `CN[C@@H]1CCN(c2cc(C3CC3c3ccccc3)nc(N)n2)C1` (single isomer, unassigned) [Example 256], the Ki is 5 nM.
As for `Nc1nc(C2CCCC2)cc(N2CCC3(CCCN3)C2)n1` (single isomer, unassigned) [Example 257, 4-Cyclopentyl-6-(cis-1,7-diaza-spiro[4.4]non-7-yl)-pyrimidin-2-ylamine], the Ki came out at 31 nM.
The same measure, in the same setting: the value for `Nc1nc(C2CCCC2)cc(N2CCC3(CCCN3)C2)n1` (single isomer, unassigned) [Example 258, 4-Cyclopentyl-6-(cis-1,7-diaza-spiro[4.4]non-7-yl)-pyrimidin-2-ylamine] was 34 nM; that for `Nc1nc(C2CCOC2)cc(N2CCNCC2)n1` (single isomer, unassigned; (+)) [Example 194, (+)-4-piperazin-1-yl-6-(tetrahydro-furan-3-yl)-pyrimidin-2-ylamine] was 49 nM; that for `Nc1nc(C2CCOC2)cc(N2CCNCC2)n1` (single isomer, unassigned; (-)) [Example 193, (−)-4-piperazin-1-yl-6-(tetrahydro-furan-3-yl)-pyrimidin-2-ylamine] was 31 nM.
On the same count and under the same terms, the value for `Nc1nc(C2CC2c2ccccc2)cc(N2CC[C@@H](N)C2)n1` (stereo in doubt) [Example 157, (R)-4-(3-Amino-pyrrolidin-1-yl)-6-(trans-2-phenyl-cyclopropyl)-pyrimidin-2-ylamine] was 29 nM; that for `CN[C@@H]1CCN(c2cc(C3CC3c3ccccc3)nc(N)n2)C1` (stereo in doubt) [Example 160, (R)-4-(3-Methylamino-pyrrolidin-1-yl)-6-(trans-2-phenyl-cyclopropyl)-pyrimidin-2-ylamine] was 3 nM.
Regarding `COCc1cc(N2CCCC(N)C2)nc(N)n1` (stereo in doubt) [Example 225, (R)-4-(3-Amino-piperidin-1-yl)-6-methoxymethyl-pyrimidin-2-ylamine], the inhibition constant Ki turned out to be 464 nM.
